Test results as given in PMC5218480 (PLoS ONE, 2017).

Test system: MV-4-11 cells
Experiment: Gene expression microarray analysis (Affymetrix PrimeView) and GSEA
Format: cell-based, human
Set-up: RFU PODN (11730768_x_at) / Fold change /veh PODN (11730768_x_at) / RFU LINC00158 (11744669_a_at) / Fold change /veh LINC00158 (11744669_a_at) / RFU DUSP10 (11751237_a_at) / Fold change /veh DUSP10 (11751237_a_at) / RFU ID3 (11757404_x_at) / Fold change /veh ID3 (11757404_x_at) / RFU PLEKHG5 (11737974_s_at) / Fold change /veh PLEKHG5 (11737974_s_at) / RFU LRRC4B (11730491_at) / Fold change /veh LRRC4B (11730491_at) / RFU GIMAP4 (11747438_a_at) / Fold change /veh GIMAP4 (11747438_a_at) / RFU KRT8 (11758183_x_at) / Fold change /veh KRT8 (11758183_x_at) / RFU CNN1 (11734310_a_at) / Fold change /veh CNN1 (11734310_a_at) / RFU VPS37D (11726825_at) / Fold change /veh VPS37D (11726825_at) / RFU C10orf10 (11716522_x_at) / Fold change /veh C10orf10 (11716522_x_at) / RFU KIR2DL2 /// KIR2DL4 /// KIR2DL5A /// KIR2DL5B /// KIR2DS1 /// KIR2DS2 /// KIR2DS3 /// KIR2DS4 /// KIR3DL3 /// KIR3DL3 /// KIR3DS1 (11738374_at) / Fold change /veh KIR2DL2 /// KIR2DL4 /// KIR2DL5A /// KIR2DL5B /// KIR2DS1 /// KIR2DS2 /// KIR2DS3 /// KIR2DS4 /// KIR3DL3 /// KIR3DL3 /// KIR3DS1 (11738374_at) / RFU C1QL1 (11718748_at) / Fold change /veh C1QL1 (11718748_at) / RFU TMPRSS4 (11747572_a_at) / Fold change /veh TMPRSS4 (11747572_a_at) / RFU HAMP (11756126_x_at) / Fold change /veh HAMP (11756126_x_at) / RFU RNFT2 (11725882_a_at) / Fold change /veh RNFT2 (11725882_a_at) / RFU NR4A2 (11747474_a_at) / Fold change /veh NR4A2 (11747474_a_at) / RFU ABCC12 (11746883_a_at) / Fold change /veh ABCC12 (11746883_a_at) / RFU TMEM136 (11760407_x_at) / Fold change /veh TMEM136 (11760407_x_at) / RFU CLDN22 /// WWC2 (11732394_at) / Fold change /veh CLDN22 /// WWC2 (11732394_at) / RFU HLA-DPB1 (11760878_x_at) / Fold change /veh HLA-DPB1 (11760878_x_at) / RFU SPINT1 (11716480_a_at) / Fold change /veh SPINT1 (11716480_a_at) / RFU GAP43 (11754022_s_at) / Fold change /veh GAP43 (11754022_s_at) / RFU A4GNT (11735810_at) / Fold change /veh A4GNT (11735810_at) / RFU PRB3 (11715151_x_at) / Fold change /veh PRB3 (11715151_x_at) / RFU TUBB4B (11761932_at) / Fold change /veh TUBB4B (11761932_at) / RFU CAPN14 (11732068_a_at) / Fold change /veh CAPN14 (11732068_a_at) / RFU TMCC2 (11721928_a_at) / Fold change /veh TMCC2 (11721928_a_at) / RFU IRGQ (11745062_a_at) / Fold change /veh IRGQ (11745062_a_at) / RFU FAM174B (11720279_a_at) / Fold change /veh FAM174B (11720279_a_at) / RFU TMPRSS4 (11748680_a_at) / Fold change /veh TMPRSS4 (11748680_a_at) / RFU FAM212B (11763350_a_at) / Fold change /veh FAM212B (11763350_a_at) / RFU PLEKHG5 (11743358_a_at) / Fold change /veh PLEKHG5 (11743358_a_at) / RFU ZSCAN30 (11745921_a_at) / Fold change /veh ZSCAN30 (11745921_a_at) / RFU CMKLR1 (11741424_a_at) / Fold change /veh CMKLR1 (11741424_a_at) / RFU LOC101060620 /// MAPK8IP1 (11723275_at) / Fold change /veh LOC101060620 /// MAPK8IP1 (11723275_at) / RFU SPTSSB (11747773_x_at) / Fold change /veh SPTSSB (11747773_x_at) / RFU PRSS12 (11739890_at) / Fold change /veh PRSS12 (11739890_at) / RFU BIN1 (11741810_x_at) / Fold change /veh BIN1 (11741810_x_at) / RFU WNT11 (11732464_a_at) / Fold change /veh WNT11 (11732464_a_at) / RFU C10orf10 (11716521_a_at) / Fold change /veh C10orf10 (11716521_a_at) / RFU C5orf56 (11738089_at) / Fold change /veh C5orf56 (11738089_at) / RFU CYB561 (11721691_x_at) / Fold change /veh CYB561 (11721691_x_at) / RFU ANKRD19P (11752326_a_at) / Fold change /veh ANKRD19P (11752326_a_at) / RFU OR2T12 /// OR2T33 /// OR2T8 (11738714_s_at) / Fold change /veh OR2T12 /// OR2T33 /// OR2T8 (11738714_s_at) / RFU VCAN (11748164_a_at) / Fold change /veh VCAN (11748164_a_at) / RFU JSRP1 (11732532_at) / Fold change /veh JSRP1 (11732532_at) / RFU KRTAP10-11 (11738290_x_at) / Fold change /veh KRTAP10-11 (11738290_x_at) / RFU MYO3A (11730013_a_at) / Fold change /veh MYO3A (11730013_a_at) / RFU EBF3 (11725865_a_at) / Fold change /veh EBF3 (11725865_a_at) / RFU CAMK2N1 (11719241_x_at) / Fold change /veh CAMK2N1 (11719241_x_at) / RFU C5orf56 (11738088_a_at) / Fold change /veh C5orf56 (11738088_a_at) / RFU OLFML3 (11715873_a_at) / Fold change /veh OLFML3 (11715873_a_at) / RFU LOC100653217 /// NTM (11731650_a_at) / Fold change /veh LOC100653217 /// NTM (11731650_a_at) / RFU MAPK11 (11762145_a_at) / Fold change /veh MAPK11 (11762145_a_at) / RFU FIZ1 (11724087_x_at) / Fold change /veh FIZ1 (11724087_x_at) / RFU OASL (11726364_x_at) / Fold change /veh OASL (11726364_x_at) / RFU SOX15 (11748057_x_at) / Fold change /veh SOX15 (11748057_x_at) / RFU CD79A (11719716_a_at) / Fold change /veh CD79A (11719716_a_at) / RFU HIST1H1D (11736915_at) / Fold change /veh HIST1H1D (11736915_at) / RFU CASKIN2 (11723855_a_at) / Fold change /veh CASKIN2 (11723855_a_at) / RFU LOC730098 (11760151_x_at) / Fold change /veh LOC730098 (11760151_x_at) / RFU OR4N2 (11742367_at) / Fold change /veh OR4N2 (11742367_at) / RFU PRRT2 (11749266_a_at) / Fold change /veh PRRT2 (11749266_a_at) / RFU SNX32 (11753110_a_at) / Fold change /veh SNX32 (11753110_a_at) / RFU CDHR5 (11726645_a_at) / Fold change /veh CDHR5 (11726645_a_at) / RFU RCAN1 (11760418_a_at) / Fold change /veh RCAN1 (11760418_a_at) / RFU FAM167A (11723789_a_at) / Fold change /veh FAM167A (11723789_a_at) / RFU FAM26E (11764081_at) / Fold change /veh FAM26E (11764081_at) / RFU ISYNA1 (11749810_s_at) / Fold change /veh ISYNA1 (11749810_s_at) / RFU ACY1 (11761880_at) / Fold change /veh ACY1 (11761880_at) / RFU 11764098_at / Fold change /veh 11764098_at / RFU SAMD14 (11745864_x_at) / Fold change /veh SAMD14 (11745864_x_at) / RFU NPB (11741838_a_at) / Fold change /veh NPB (11741838_a_at) / RFU TMPRSS6 (11731388_a_at) / Fold change /veh TMPRSS6 (11731388_a_at) / RFU KRTAP10-2 (11738614_at) / Fold change /veh KRTAP10-2 (11738614_at) / RFU ARHGAP8 /// PRR5-ARHGAP8 (11727945_x_at) / Fold change /veh ARHGAP8 /// PRR5-ARHGAP8 (11727945_x_at) / RFU KRTAP5-7 /// NADSYN1 (11734609_at) / Fold change /veh KRTAP5-7 /// NADSYN1 (11734609_at) / RFU RASL12 (11751679_a_at) / Fold change /veh RASL12 (11751679_a_at) / RFU CDKN2B (11736163_a_at) / Fold change /veh CDKN2B (11736163_a_at) / RFU PRF1 (11729649_at) / Fold change /veh PRF1 (11729649_at) / RFU, ZNF638 /// ZNF638-IT1 / Fold change vs veh, ZNF638 /// ZNF638-IT1 / RFU, PANK3 / Fold change vs veh, PANK3 / RFU, SH3YL1 / Fold change vs veh, SH3YL1 / RFU, ZEB2 / Fold change vs veh, ZEB2 / RFU, NRIP1 / Fold change vs veh, NRIP1 / RFU, PTTG1IP / Fold change vs veh, PTTG1IP / RFU, CAPN2 / Fold change vs veh, CAPN2 / RFU, MED14 / Fold change vs veh, MED14 / RFU, SNORA58 / Fold change vs veh, SNORA58 / RFU, C1orf63 / Fold change vs veh, C1orf63 / RFU, LRRFIP1 / Fold change vs veh, LRRFIP1 / RFU, NDUFAF7 / Fold change vs veh, NDUFAF7 / RFU, SLC12A2 / Fold change vs veh, SLC12A2 / RFU, IBTK / Fold change vs veh, IBTK / RFU, ESF1 / Fold change vs veh, ESF1 / Fold change vs veh, TMEM50B / RFU, TAOK1 / Fold change vs veh, TAOK1 / RFU, ACBD3 / Fold change vs veh, ACBD3 / RFU, TMA16 / Fold change vs veh, TMA16 / RFU, RWDD3 / Fold change vs veh, RWDD3 / RFU, BCAT1 / Fold change vs veh, BCAT1 / RFU, EDEM3 / Fold change vs veh, EDEM3 / RFU, TMEM33 / Fold change vs veh, TMEM33 / RFU, WDR75 / Fold change vs veh, WDR75 / RFU, AHCTF1 / Fold change vs veh, AHCTF1 / RFU, TFRC / Fold change vs veh, TFRC / RFU, ZDHHC17 / Fold change vs veh, ZDHHC17 / RFU, NOM1 / Fold change vs veh, NOM1 / RFU, ARL8B / Fold change vs veh, ARL8B / RFU, ZBTB11 / Fold change vs veh, ZBTB11 / RFU, TAMM41 / Fold change vs veh, TAMM41 / RFU, KIAA1704 /// LOC100996395 / Fold change vs veh, KIAA1704 /// LOC100996395 / RFU, ING1 / Fold change vs veh, ING1 / RFU, TRMT61B / Fold change vs veh, TRMT61B / RFU, FUBP3 / Fold change vs veh, FUBP3 / RFU, TP53 / Fold change vs veh, TP53 / RFU, TNKS2 / Fold change vs veh, TNKS2 / RFU, ZFP14 / Fold change vs veh, ZFP14 / RFU, ACTR2 / Fold change vs veh, ACTR2 / RFU, PPP3R1 / Fold change vs veh, PPP3R1 / RFU, PIK3R1 / Fold change vs veh, PIK3R1 / RFU, HNRNPA1 / Fold change vs veh, HNRNPA1 / RFU, RNF170 / Fold change vs veh, RNF170 / RFU, ZNF28 / Fold change vs veh, ZNF28 / RFU, RNGTT / Fold change vs veh, RNGTT / RFU, OGT / Fold change vs veh, OGT / RFU, BRD1 / Fold change vs veh, BRD1 / RFU, MARS / Fold change vs veh, MARS / RFU, ZNF655 / Fold change vs veh, ZNF655 / RFU, FAHD1 / Fold change vs veh, FAHD1 / RFU, BDP1 / Fold change vs veh, BDP1 / RFU, LRRCC1 / Fold change vs veh, LRRCC1 / RFU, ARID1A / Fold change vs veh, ARID1A / RFU, ZNF146 / Fold change vs veh, ZNF146 / RFU, ZNF330 / Fold change vs veh, ZNF330 / RFU, GPN3 / Fold change vs veh, GPN3 / RFU, C9orf123 / Fold change vs veh, C9orf123 / RFU, N4BP2L2 / Fold change vs veh, N4BP2L2 / RFU, ARFIP1 / Fold change vs veh, ARFIP1 / RFU, FAM179B / Fold change vs veh, FAM179B / RFU, BCL10 / Fold change vs veh, BCL10 / RFU, UHRF1BP1L / Fold change vs veh, UHRF1BP1L / RFU, BET1 / Fold change vs veh, BET1 / RFU, CNOT2 / Fold change vs veh, CNOT2 / RFU, ZNF268 / Fold change vs veh, ZNF268 / Fold change vs veh, ZNF507 / RFU, DGCR2 / Fold change vs veh, DGCR2 / RFU, WDSUB1 / Fold change vs veh, WDSUB1 / Fold change vs veh, HSP90B1 /// MIR3652 / RFU, ADSS / Fold change vs veh, ADSS / RFU, GK / Fold change vs veh, GK / RFU, ZNF148 / Fold change vs veh, ZNF148 / RFU, TAF9 / Fold change vs veh, TAF9 / RFU, SLC1A5 / Fold change vs veh, SLC1A5 / RFU, SLMO2 / Fold change vs veh, SLMO2 / RFU, ABCC4 / Fold change vs veh, ABCC4 / RFU, LOC101060439 /// RAP1B / Fold change vs veh, LOC101060439 /// RAP1B / RFU, RFX7 / Fold change vs veh, RFX7 / RFU, GTPBP10 / Fold change vs veh, GTPBP10 / RFU, CNEP1R1 / Fold change vs veh, CNEP1R1 / RFU, BIVM-ERCC5 /// ERCC5 / Fold change vs veh, BIVM-ERCC5 /// ERCC5 / RFU, ILF3 / Fold change vs veh, ILF3 / RFU 11762660_at / Fold change /veh 11762660_at / RFU VCAN (11757783_s_at) / Fold change /veh VCAN (11757783_s_at) / RFU DDX43 (11728927_at) / Fold change /veh DDX43 (11728927_at) / RFU KRT8 (11758188_x_at) / Fold change /veh KRT8 (11758188_x_at) / RFU NKD1 (11759106_at) / Fold change /veh NKD1 (11759106_at) / RFU SRD5A1 (11742802_a_at) / Fold change /veh SRD5A1 (11742802_a_at) / RFU TPSAB1 /// TPSB2 (11721975_s_at) / Fold change /veh TPSAB1 /// TPSB2 (11721975_s_at) / RFU GSTM3 (11746129_a_at) / Fold change /veh GSTM3 (11746129_a_at) / RFU IL23R (11737362_x_at) / Fold change /veh IL23R (11737362_x_at) / RFU TMEM51 (11727254_a_at) / Fold change /veh TMEM51 (11727254_a_at) / RFU PIWIL2 (11732686_x_at) / Fold change /veh PIWIL2 (11732686_x_at) / RFU ORM1 (11744905_x_at) / Fold change /veh ORM1 (11744905_x_at) / RFU CCDC152 (11743942_at) / Fold change /veh CCDC152 (11743942_at) / RFU ECM1 (11717891_a_at) / Fold change /veh ECM1 (11717891_a_at) / RFU IL23R (11748794_a_at) / Fold change /veh IL23R (11748794_a_at) / RFU TNFAIP8L3 (11732012_x_at) / Fold change /veh TNFAIP8L3 (11732012_x_at) / RFU MBOAT4 (11741988_at) / Fold change /veh MBOAT4 (11741988_at) / RFU 11764193_at / Fold change /veh 11764193_at / RFU TMEM53 (11763286_at) / Fold change /veh TMEM53 (11763286_at) / RFU MAGEB2 (11727129_at) / Fold change /veh MAGEB2 (11727129_at) / RFU TMEM200A (11744735_a_at) / Fold change /veh TMEM200A (11744735_a_at) / RFU CCDC152 (11751479_a_at) / Fold change /veh CCDC152 (11751479_a_at) / RFU FAM211A (11726209_a_at) / Fold change /veh FAM211A (11726209_a_at) / RFU RGS16 (11746705_a_at) / Fold change /veh RGS16 (11746705_a_at) / RFU VCAN (11755009_s_at) / Fold change /veh VCAN (11755009_s_at) / RFU RHOB (11743442_s_at) / Fold change /veh RHOB (11743442_s_at) / RFU RGS16 (11720943_a_at) / Fold change /veh RGS16 (11720943_a_at) / RFU RGS16 (11720944_at) / Fold change /veh RGS16 (11720944_at) / RFU, VPS4B / Fold change vs veh, VPS4B / RFU, CREB1 / Fold change vs veh, CREB1 / RFU, DNAJC13 / Fold change vs veh, DNAJC13 / RFU, GNAQ / Fold change vs veh, GNAQ / RFU, CDK5R1 / Fold change vs veh, CDK5R1 / RFU, ZRANB3 / Fold change vs veh, ZRANB3 / RFU, CUL4A / Fold change vs veh, CUL4A / RFU, CCNY / Fold change vs veh, CCNY / RFU, UFL1 / Fold change vs veh, UFL1 / RFU, COG3 / Fold change vs veh, COG3 / RFU, DIAPH2 / Fold change vs veh, DIAPH2 / RFU, SKA2 / Fold change vs veh, SKA2 / RFU, AFF3 / Fold change vs veh, AFF3 / RFU, LMF1 / Fold change vs veh, LMF1 / RFU, IPO11 / Fold change vs veh, IPO11 / RFU, DFFB / Fold change vs veh, DFFB / RFU, FOXP1 / Fold change vs veh, FOXP1 / RFU, CARD8 / Fold change vs veh, CARD8 / RFU, STRN3 / Fold change vs veh, STRN3 / RFU, ADK / Fold change vs veh, ADK / RFU, RASSF2 / Fold change vs veh, RASSF2 / RFU, WIPF1 / Fold change vs veh, WIPF1 / RFU, LARP1B / Fold change vs veh, LARP1B / RFU, RASA1 / Fold change vs veh, RASA1 / RFU, RB1 / Fold change vs veh, RB1 / RFU, PPFIA1 / Fold change vs veh, PPFIA1 / RFU, MAT2A / Fold change vs veh, MAT2A / RFU, CCT5 / Fold change vs veh, CCT5 / RFU, WDR92 / Fold change vs veh, WDR92 / RFU, CUX1 / Fold change vs veh, CUX1 / RFU, TTC7A / Fold change vs veh, TTC7A / RFU, TMEM135 / Fold change vs veh, TMEM135 / RFU, DEPTOR / Fold change vs veh, DEPTOR / RFU, CPM / Fold change vs veh, CPM / RFU, DNAJB6 / Fold change vs veh, DNAJB6 / RFU, CACNA2D3 / Fold change vs veh, CACNA2D3 / RFU, DTX4 / Fold change vs veh, DTX4 / RFU, TFCP2 / Fold change vs veh, TFCP2 / RFU, GMCL1 /// GMCL1P1 / Fold change vs veh, GMCL1 /// GMCL1P1 / RFU, AEBP2 / Fold change vs veh, AEBP2 / RFU, SNHG1 /// SNORD22 /// SNORD25 /// SNORD26 /// SNORD27 /// SNORD28 /// SNORD29 /// SNORD31 / Fold change vs veh, SNHG1 /// SNORD22 /// SNORD25 /// SNORD26 /// SNORD27 /// SNORD28 /// SNORD29 /// SNORD31 / Fold change (Aza/veh), C12orf56 (ProbeSet 11735607_a_at) / Fold change (ACY-1035/veh), C12orf56 (ProbeSet 11735607_a_at) / Fold change (Aza/veh), FGFR1OP (ProbeSet 11751329_s_at) / Fold change (ACY-1035/veh), FGFR1OP (ProbeSet 11751329_s_at) / Fold change (Aza/veh), VPS36 (ProbeSet 11739960_a_at) / Fold change (ACY-1035/veh), VPS36 (ProbeSet 11739960_a_at) / RFU SYPL1 (11715823_x_at) / Fold change /veh SYPL1 (11715823_x_at) / RFU IGFBP7 (11715501_s_at) / Fold change /veh IGFBP7 (11715501_s_at) / RFU REEP3 (11722064_at) / Fold change /veh REEP3 (11722064_at) / RFU IGLL1 (11728026_x_at) / Fold change /veh IGLL1 (11728026_x_at): dose or concentration left out as unconfirmed
Conditions: MV-4-11 cells, 48 hours

## Nc1ccc(-c2cccs2)cc1NC(=O)c1ccc2c(c1)cc(C1CC1)n2CCN1CCOCC1 [ACY-1035]
  RFU TMPRSS4 (11747572_a_at): 57.40 RFU
